Several values for one entry are separate records, joined by “and”; a condition that tells them apart may be missing. Equal entries are not always repeated. Toxic doses and inconclusive results are not listed.
System: P388 leukemia ip, CD2F1 mice, survival T/C
Test: NCI In Vivo Anticancer Drug Screen. Data for tumor model P388 Leukemia (intraperitoneal) in CD2F1 (CDF1) mice
Details: endpoint: median survival time, higher = longer survival
In short: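 Mice carrying the transplanted tumor received test compound or vehicle. Survival was recorded in each group, and the value is the treated-group measurement divided by that of the vehicle-treated control group.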

[1] = dose: 50.0 mg/kg/injection, schedule: Q01DX009 (ip), vehicle: Klucel (hydroxypropylcellulose) (HPC)
[2] = dose: 100.0 mg/kg/injection, schedule: Q01DX001 (ip), vehicle: Klucel (hydroxypropylcellulose) (HPC)
[3] = dose: 200.0 mg/kg/injection, schedule: Q01DX001 (ip), vehicle: Klucel (hydroxypropylcellulose) (HPC)
[4] = dose: 400.0 mg/kg/injection, schedule: Q01DX001 (ip), vehicle: Klucel (hydroxypropylcellulose) (HPC)
[5] = dose: 100.0 mg/kg/injection, schedule: Q04DX002 (ip), vehicle: saline with Tween-80

Structure (SMILES): CCCCCCCCCCCCCCCCCc1cccc(O)c1
- T/C (dose: 12.5 mg/kg/injection, schedule: Q01DX009 (ip), vehicle: Klucel (hydroxypropylcellulose) (HPC)): 114 % of control
- T/C (dose: 25.0 mg/kg/injection, schedule: Q01DX009 (ip), vehicle: Klucel (hydroxypropylcellulose) (HPC)): 103 % of control
- T/C [1]: 114 % of control

Structure (SMILES): CN(Cc1nc2ccccc2[nH]1)N=O
- T/C [2]: 97 % of control
- T/C [3]: 107 % of control
- T/C [4]: 102 % of control

Structure (SMILES): CCNC(=O)/C=C(C)/C=C/C=C(C)/C=C/c1c(C)cc(OC)c(C)c1C
- T/C (dose: 25.0 mg/kg/injection, schedule: Q01DX005 (ip), vehicle: Klucel (hydroxypropylcellulose) (HPC)): 86 % of control
- T/C (dose: 50.0 mg/kg/injection, schedule: Q01DX005 (ip), vehicle: Klucel (hydroxypropylcellulose) (HPC)): 90 % of control
- T/C (dose: 100.0 mg/kg/injection, schedule: Q01DX005 (ip), vehicle: Klucel (hydroxypropylcellulose) (HPC)): 100 % of control and 101 % of control
- T/C (dose: 200.0 mg/kg/injection, schedule: Q01DX005 (ip), vehicle: Klucel (hydroxypropylcellulose) (HPC)): 108 % of control

Structure (SMILES): CC(=O)C1=C(O)/C(=C\c2ccccc2)OC1=O
- T/C [1]: 92 % of control
- T/C (dose: 100.0 mg/kg/injection, schedule: Q01DX009 (ip), vehicle: Klucel (hydroxypropylcellulose) (HPC)): 107 % of control

Structure (SMILES): CC(=O)C(Cl)C(=O)c1c(-c2ccccc2)[nH]c2ccccc12 (stereo not drawn)
- T/C [2]: 100 % of control
- T/C [3]: 102 % of control
- T/C [4]: 105 % of control

Structure (SMILES): COc1ccc(C2(Cc3ccccc3C#N)OCCO2)cc1OC
- T/C (dose: 100.0 mg/kg/injection, schedule: Q04DX002 (ip), vehicle: Klucel (hydroxypropylcellulose) (HPC)): 95 % of control
- T/C (dose: 200.0 mg/kg/injection, schedule: Q04DX002 (ip), vehicle: Klucel (hydroxypropylcellulose) (HPC)): 101 % of control
- T/C (dose: 400.0 mg/kg/injection, schedule: Q04DX002 (ip), vehicle: Klucel (hydroxypropylcellulose) (HPC)): 99 % of control

Structure (SMILES): CC(=O)Nc1cnc2c(nc3cc(C)ccn32)c1C
- T/C (dose: 60.0 mg/kg/injection, schedule: Q01DX005 (ip), vehicle: saline with Tween-80): 106 % of control
- T/C (dose: 120.0 mg/kg/injection, schedule: Q01DX005 (ip), vehicle: saline with Tween-80): 100 % of control
- T/C (dose: 240.0 mg/kg/injection, schedule: Q01DX005 (ip), vehicle: saline with Tween-80): 97 % of control

Structure (SMILES): S=C1SSC(=S)C1=C1C=CN(Cc2ccccc2)C=C1
- T/C (dose: 25.0 mg/kg/injection, schedule: Q04DX002 (ip), vehicle: saline with Tween-80): 102 % of control
- T/C (dose: 50.0 mg/kg/injection, schedule: Q04DX002 (ip), vehicle: saline with Tween-80): 99 % of control
- T/C [5]: 100 % of control

Structure (SMILES): COC1C(N)C(OC2C(Oc3cccc4c(O)c5c(=O)oc6ccc(C)c7c(=O)oc(c34)c5c67)OC(C)C(O)C2(C)O)OC(C)C1O (stereo not drawn)
- T/C (dose: 0.63 mg/kg/injection, schedule: Q01DX009 (ip), vehicle: other): 183 % of control
- T/C (dose: 1.25 mg/kg/injection, schedule: Q01DX009 (ip), vehicle: other): 198 % of control
- T/C (dose: 2.5 mg/kg/injection, schedule: Q01DX009 (ip), vehicle: other): 202 % of control
- T/C (dose: 5.0 mg/kg/injection, schedule: Q01DX009 (ip), vehicle: other): 276 % of control

Structure (SMILES): NC(CS)C(=O)NCC(=O)O (stereo not drawn)
- T/C (dose: 50.0 mg/kg/injection, schedule: Q01DX009 (ip), vehicle: distilled water + alcohol): 109 % of control
- T/C (dose: 100.0 mg/kg/injection, schedule: Q01DX009 (ip), vehicle: distilled water + alcohol): 98 % of control
- T/C (dose: 200.0 mg/kg/injection, schedule: Q01DX009 (ip), vehicle: distilled water + alcohol): 92 % of control

Structure (SMILES): CCOP(=S)(Nc1ccc(F)cc1F)OCC
- T/C [5]: 113 % of control
- T/C (dose: 200.0 mg/kg/injection, schedule: Q04DX002 (ip), vehicle: saline with Tween-80): 95 % of control

Reference: PubChem BioAssay AID330 (DTP/NCI, 2004)
